This is an account of results in US5312625A, “Fused 7-membered cyclic compound and antipsychotic preparation containing the same” (Suntory Limited, priority 1990, dated 1994).

For the experiment, the target named is T1, serotonin receptor (Rattus norvegicus, UniProt P19327).
T1 construct: To a cerebral cortex nucleated from a Wistar-strain male rat; from tissue; host or cells: cerebral cortex of male Wistar rat (membrane preparation)
T1 sequence (P19327 1-422): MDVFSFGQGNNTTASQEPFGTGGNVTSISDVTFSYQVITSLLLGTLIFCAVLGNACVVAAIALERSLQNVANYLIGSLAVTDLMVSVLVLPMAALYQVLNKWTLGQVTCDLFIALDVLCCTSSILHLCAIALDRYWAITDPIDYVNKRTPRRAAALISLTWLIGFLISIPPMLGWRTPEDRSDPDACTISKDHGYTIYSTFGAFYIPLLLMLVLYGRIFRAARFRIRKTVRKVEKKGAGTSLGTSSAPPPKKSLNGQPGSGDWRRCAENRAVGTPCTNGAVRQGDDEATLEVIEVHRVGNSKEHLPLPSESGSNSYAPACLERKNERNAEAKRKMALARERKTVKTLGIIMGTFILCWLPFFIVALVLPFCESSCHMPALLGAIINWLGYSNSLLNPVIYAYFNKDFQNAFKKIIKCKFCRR
The experiment can be described thus: Affinity for serotonin receptor, [3H]8-OHDPAT binding test in rat cerebral cortex. On the set-up: species or system rat (Wistar-strain male). The following applies: [3H]8-OHDPAT 0.4 nM; rat cerebral cortex membranes; pH 7.4; 25° C., 30 minutes; read-out: [^3 H]-8-OH-DPAT IC50. As to the method: The experiment was carried out according to the method of S. T. Perouka (J. Neurochem., 47, 529-540 (1986)).
To a cerebral cortex nucleated from a Wistar-strain male rat was added 50 mM Tris-HCl (pH 7.7) buffer, and the mixture was homogenized by a Polytron®. The homogenate was centrifuged at 40,000 G for 10 minutes, and the same buffer was added to the precipitate obtained, followed by homogenization and incubation at 37° C. for 30 minutes. The suspension was again subjected to centrifugation at 40,000 G for 10 minutes, and the same buffer was added to the precipitate, followed by homogenization and a further centrifugation at 40,000 G for 10 minutes. To the final precipitate obtained was added 50 mM Tris-HCl (10 μM pargyline, 4 mM CaCl2 0.1% ascorbic acid) (pH 7.4), and the mixture was homogenized and used for the binding test. The [^3 H]8-OHDPAT used for the binding test was 0.4 nM, with the protein amount being 0.4 to 0.6 mg/ml and the total amount 1 ml. After incubation at 25° C. for 30 minutes, the mixture was filtered by the filtration method, using the Whatman GF/B filter, and the filter was washed 3 times with 5 ml of the same buffer. To the filter was added a scintillation cocktail, followed by a measurement by a liquid scintillation counter.
Broadly, the IC50 is the midpoint of a concentration-inhibition curve. On to `CN1CC(=O)N(CCCCN2CCN(c3ncccn3)CC2)C(=O)c2ccccc21` [Example 25], for which the IC50 worked out at 270 nM. As for `O=C1CSc2ccccc2C(=O)N1CCCCN1CCN(c2ncccn2)CC1` [Example 19, 4-(4-(4-(2-pyrimidinyl)piperadinyl)butyl)-2,3,4,5-tetrahydro-1,4-benzothiazepine-3,5-dione], the figure is 14.3 nM; as for `O=C1CNc2ccccc2C(=O)N1CCCCN1CCN(c2ncccn2)CC1` [Example 22, 4-(4-(4-(2-pyrimidinyl)piperazinyl)butyl)-2,3,4,5-tetrahydro-1,4-benzodiazepine-3,5-dione], 67.3 nM. As for `O=C1CNc2ccccc2C(=O)N1CCCCN1CCN(c2ccccn2)CC1` [Example 21, 4-(4-(4-(2-pyridyl)piperazinyl)butyl)-2,3,4,5-tetrahydro-1,4-benzodiazepine-3,5-dione], the figure is 13.3 nM; as for `O=C1CCc2ccccc2C(=O)N1CCCCN1CCN(c2ccccn2)CC1` [Example 27, 2-(4-(4-(2-pyridyl)piperazinyl)butyl)-1,3,4,5-tetrahydro-2-benzazepine-1,3-dione], 17.1 nM. Turning to `O=C1CSc2ccccc2C(=O)N1CCCCN1CCN(c2ccccc2)CC1` [Example 17], the IC50 is 9.29 nM. As for `O=C1CSc2ccccc2C(=O)N1CCCCN1CCN(c2ccccn2)CC1` [Example 18, 4-(4-(4-(2-pyridyl)piperazinyl)butyl)-2,3,4,5-tetrahydro-1,4-benzothiazeoine-3,5-dione], the IC50 stood at 3.28 nM. Turning to `O=C1CCc2ccccc2C(=O)N1CCCCN1CCN(c2ncccn2)CC1` [Example 28, 2-(4-(4-(2-pyrimidinyl)piperazinyl)butyl)-1,3,4,5-tetrahydro-2-benzazepine-1,3-dione], the IC50 is 58.4 nM.

Take `CN1CC(=O)N(CCCCN2CCN(c3ccccn3)CC2)C(=O)c2ccccc21` [Example 24, 1-methyl-4-(4-(4-(2-pyridyl)piperazinyl)butyl)-2,3,4,5-tetrahydro-1,4-benzodiazepine-3,5-dione]: the 50% inhibitory concentration (IC50) is 61.4 nM.
